Experimental data reported in PubChem BioAssay (NCI).
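Interpolation was linear, between the two tested concentrations surrounding the appropriate level; five concentrations were tested over 48 hours in 96-well plates. TGI: concentration producing complete growth inhibition.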

What was measured:
Assay in all cases: NCI tumour cell line growth inhibition, 48 h
DMS 114 small cell lung = tested on: DMS 114 small cell lung
NCI-H23 lung = tested on: NCI-H23 lung
OVCAR-8 ovarian = tested on: OVCAR-8 ovarian
SK-MEL-5 melanoma = tested on: SK-MEL-5 melanoma
MOLT-4 leukemia = tested on: MOLT-4 leukemia
OVCAR-5 ovarian = tested on: OVCAR-5 ovarian
SK-OV-3 ovarian = tested on: SK-OV-3 ovarian
M14 melanoma = tested on: M14 melanoma
TK-10 renal = tested on: TK-10 renal
BT-549 breast = tested on: BT-549 breast
HS 578T breast = tested on: HS 578T breast
SN12C renal = tested on: SN12C renal
XF 498 CNS = tested on: XF 498 CNS
786-0 renal = tested on: 786-0 renal
SN12K1 renal = tested on: SN12K1 renal
A498 renal = tested on: A498 renal
HT29 colon = tested on: HT29 colon
SF-268 CNS = tested on: SF-268 CNS
SF-295 CNS = tested on: SF-295 CNS
LXFL 529 NSCLC = tested on: LXFL 529 NSCLC
P388/ADR leukemia = tested on: P388/ADR leukemia
KM20L2 colon = tested on: KM20L2 colon
NCI-H522 lung = tested on: NCI-H522 lung
U251 CNS = tested on: U251 CNS
UACC-62 melanoma = tested on: UACC-62 melanoma
SK-MEL-2 melanoma = tested on: SK-MEL-2 melanoma
PC-3 prostate = tested on: PC-3 prostate
MDA-MB-231 breast = tested on: MDA-MB-231 breast
NCI-H460 lung = tested on: NCI-H460 lung
RPMI-8226 leukemia = tested on: RPMI-8226 leukemia
HCT-15 colon = tested on: HCT-15 colon
P388 leukemia = tested on: P388 leukemia
T-47D breast = tested on: T-47D breast
SNB-19 CNS = tested on: SNB-19 CNS
COLO 205 colon = tested on: COLO 205 colon
CCRF-CEM leukemia = tested on: CCRF-CEM leukemia
RXF 393 renal = tested on: RXF 393 renal
DU-145 prostate = tested on: DU-145 prostate
SNB-75 CNS = tested on: SNB-75 CNS
SNB-78 CNS = tested on: SNB-78 CNS
MALME-3M melanoma = tested on: MALME-3M melanoma
ACHN renal = tested on: ACHN renal
SR leukemia = tested on: SR leukemia
HOP-92 NSCLC = tested on: HOP-92 NSCLC
HOP-18 NSCLC = tested on: HOP-18 NSCLC
KM12 colon = tested on: KM12 colon
DLD-1 colon = tested on: DLD-1 colon
OVCAR-4 ovarian = tested on: OVCAR-4 ovarian
HCT-116 colon = tested on: HCT-116 colon
IGROV1 ovarian = tested on: IGROV1 ovarian
SK-MEL-28 melanoma = tested on: SK-MEL-28 melanoma
MDA-MB-435 = tested on: MDA-MB-435
UACC-257 melanoma = tested on: UACC-257 melanoma
UO-31 renal = tested on: UO-31 renal
CAKI-1 renal = tested on: CAKI-1 renal
A549 NSCLC = tested on: A549 NSCLC
NCI/ADR-RES ovarian = tested on: NCI/ADR-RES ovarian
DMS 273 small cell lung = tested on: DMS 273 small cell lung
NCI-H226 lung = tested on: NCI-H226 lung
MCF7 breast = tested on: MCF7 breast
EKVX NSCLC = tested on: EKVX NSCLC
HL-60(TB) leukemia = tested on: HL-60(TB) leukemia
SF-539 CNS = tested on: SF-539 CNS
M19-MEL melanoma = tested on: M19-MEL melanoma
K-562 leukemia = tested on: K-562 leukemia
LOX IMVI melanoma = tested on: LOX IMVI melanoma
SW-620 colon = tested on: SW-620 colon
MDA-N = tested on: MDA-N
HOP-62 NSCLC = tested on: HOP-62 NSCLC
HCC-2998 colon = tested on: HCC-2998 colon
OVCAR-3 ovarian = tested on: OVCAR-3 ovarian
RXF-631 renal = tested on: RXF-631 renal

COc1cc(/C=C/C(=O)Oc2ccc(NC(C)=O)cc2)ccc1C(=O)OCc1ccccc1
TGI (DMS 114 small cell lung): > 100 µM | TGI (NCI-H23 lung): > 100 µM | TGI (OVCAR-8 ovarian): > 100 µM | TGI (SK-MEL-5 melanoma): > 100 µM | TGI (MOLT-4 leukemia): > 100 µM | TGI (OVCAR-5 ovarian): > 100 µM | TGI (SK-OV-3 ovarian): > 92 µM | TGI (M14 melanoma): > 100 µM | TGI (TK-10 renal): > 100 µM | TGI (BT-549 breast): > 100 µM | TGI (HS 578T breast): > 100 µM | TGI (SN12C renal): > 100 µM | TGI (XF 498 CNS): > 70.2 µM | TGI (786-0 renal): > 100 µM | TGI (SN12K1 renal): > 100 µM | TGI (A498 renal): > 100 µM | TGI (HT29 colon): > 100 µM | TGI (SF-268 CNS): > 100 µM | TGI (SF-295 CNS): > 89.3 µM | TGI (LXFL 529 NSCLC): > 100 µM | TGI (P388/ADR leukemia): > 100 µM | TGI (KM20L2 colon): > 100 µM | TGI (NCI-H522 lung): > 100 µM | TGI (U251 CNS): > 78.7 µM | TGI (UACC-62 melanoma): > 97.1 µM | TGI (SK-MEL-2 melanoma): 99.8 µM | TGI (PC-3 prostate): > 100 µM | TGI (MDA-MB-231 breast): > 100 µM | TGI (NCI-H460 lung): > 100 µM | TGI (RPMI-8226 leukemia): > 100 µM | TGI (HCT-15 colon): > 100 µM | TGI (P388 leukemia): > 100 µM | TGI (T-47D breast): > 100 µM | TGI (SNB-19 CNS): > 91.2 µM | TGI (COLO 205 colon): > 100 µM | TGI (CCRF-CEM leukemia): > 100 µM | TGI (RXF 393 renal): 58.3 µM | TGI (DU-145 prostate): > 100 µM | TGI (SNB-75 CNS): 47.6 µM | TGI (SNB-78 CNS): > 89.4 µM | TGI (MALME-3M melanoma): > 100 µM | TGI (ACHN renal): > 100 µM | TGI (SR leukemia): > 100 µM | TGI (HOP-92 NSCLC): > 100 µM | TGI (HOP-18 NSCLC): > 100 µM | TGI (KM12 colon): > 100 µM | TGI (DLD-1 colon): > 100 µM | TGI (OVCAR-4 ovarian): > 100 µM | TGI (HCT-116 colon): > 100 µM | TGI (IGROV1 ovarian): > 93.2 µM | TGI (SK-MEL-28 melanoma): > 100 µM | TGI (MDA-MB-435): > 100 µM | TGI (UACC-257 melanoma): > 100 µM | TGI (UO-31 renal): > 100 µM | TGI (CAKI-1 renal): > 100 µM | TGI (A549 NSCLC): > 100 µM | TGI (NCI/ADR-RES ovarian): > 100 µM | TGI (DMS 273 small cell lung): > 100 µM | TGI (NCI-H226 lung): > 100 µM | TGI (MCF7 breast): > 100 µM | TGI (EKVX NSCLC): > 100 µM | TGI (HL-60(TB) leukemia): > 100 µM | TGI (SF-539 CNS): 60.8 µM | TGI (M19-MEL melanoma): > 100 µM | TGI (K-562 leukemia): > 100 µM | TGI (LOX IMVI melanoma): > 100 µM | TGI (SW-620 colon): > 100 µM | TGI (MDA-N): > 100 µM | TGI (HOP-62 NSCLC): > 91.3 µM | TGI (HCC-2998 colon): > 100 µM | TGI (OVCAR-3 ovarian): > 100 µM

CCOC(=O)/C(=C\c1ccccc1)C(=O)CCN1CCOCC1
TGI (DMS 114 small cell lung): 14.6 µM | TGI (NCI-H23 lung): 24.9 µM | TGI (OVCAR-8 ovarian): 18.4 µM | TGI (SK-MEL-5 melanoma): 25.3 µM | TGI (MOLT-4 leukemia): 5.3 µM | TGI (OVCAR-5 ovarian): 31.8 µM | TGI (SK-OV-3 ovarian): 50.5 µM | TGI (M14 melanoma): 18 µM | TGI (TK-10 renal): 19.9 µM | TGI (BT-549 breast): 33.6 µM | TGI (HS 578T breast): > 100 µM | TGI (SN12C renal): 19.7 µM | TGI (786-0 renal): 21.9 µM | TGI (SN12K1 renal): 19.4 µM | TGI (A498 renal): 31.1 µM | TGI (HT29 colon): 25.1 µM | TGI (SF-268 CNS): 27.8 µM | TGI (SF-295 CNS): 38.3 µM | TGI (LXFL 529 NSCLC): 3.52 µM | TGI (P388/ADR leukemia): > 21.7 µM | TGI (KM20L2 colon): 30.9 µM | TGI (NCI-H522 lung): 3.43 µM | TGI (U251 CNS): 21.6 µM | TGI (UACC-62 melanoma): 12.5 µM | TGI (SK-MEL-2 melanoma): 42.4 µM | TGI (PC-3 prostate): 24.7 µM | TGI (MDA-MB-231 breast): 27.1 µM | TGI (NCI-H460 lung): 30 µM | TGI (RPMI-8226 leukemia): 6.07 µM | TGI (HCT-15 colon): 9.63 µM | TGI (P388 leukemia): 3.66 µM | TGI (T-47D breast): 40.5 µM | TGI (SNB-19 CNS): 51.5 µM | TGI (COLO 205 colon): 8.93 µM | TGI (CCRF-CEM leukemia): 3.95 µM | TGI (RXF 393 renal): 6.09 µM | TGI (RXF-631 renal): 28.8 µM | TGI (DU-145 prostate): 39.2 µM | TGI (SNB-75 CNS): 38.3 µM | TGI (SNB-78 CNS): 36.5 µM | TGI (MALME-3M melanoma): 7.85 µM | TGI (ACHN renal): 13.4 µM | TGI (SR leukemia): 9.11 µM | TGI (HOP-92 NSCLC): 17.2 µM | TGI (HOP-18 NSCLC): 28.6 µM | TGI (KM12 colon): 23.1 µM | TGI (DLD-1 colon): 6.96 µM | TGI (OVCAR-4 ovarian): 33.6 µM | TGI (HCT-116 colon): 34.9 µM | TGI (IGROV1 ovarian): 29.9 µM | TGI (SK-MEL-28 melanoma): 10.1 µM | TGI (MDA-MB-435): 40.1 µM | TGI (UACC-257 melanoma): 11 µM | TGI (UO-31 renal): 31.2 µM | TGI (CAKI-1 renal): 9.51 µM | TGI (A549 NSCLC): 53.1 µM | TGI (NCI/ADR-RES ovarian): 32.5 µM | TGI (DMS 273 small cell lung): 27.3 µM | TGI (NCI-H226 lung): 45.9 µM | TGI (MCF7 breast): 23.8 µM | TGI (EKVX NSCLC): 34.7 µM | TGI (HL-60(TB) leukemia): 3.38 µM | TGI (SF-539 CNS): 16 µM | TGI (M19-MEL melanoma): 11.8 µM | TGI (K-562 leukemia): 4.87 µM | TGI (LOX IMVI melanoma): 8.54 µM | TGI (SW-620 colon): 5.19 µM | TGI (MDA-N): 18.7 µM | TGI (HOP-62 NSCLC): 40.8 µM | TGI (HCC-2998 colon): 32.6 µM | TGI (OVCAR-3 ovarian): 18.6 µM
